# Results from ChEMBL document CHEMBL3352022, “Preparation and biological evaluation of 1'-cyano-2'-C-methyl pyrimidine nucleosides as HCV NS5B polymerase inhibitors” (Bioorg Med Chem Lett, 2014).
# What was measured:
# [1] = system: Hepatitis C virus; experiment: Antiviral activity against HCV1a assessed as inhibition of viral replication by cell based 384 well format assay; assay type: functional, Hepacivirus hominis; settings: subtype 1a
# [2] = system: Hepatitis C virus; experiment: Antiviral activity against HCV1b assessed as inhibition of viral replication by cell based 384 well format assay; assay type: functional, Hepacivirus hominis; settings: genotype 1b
# [3] = Inhibition of HCV1b NS5B polymerase; parameters: species or system Hepatitis C virus subtype 1b
# [4] = system: Hepatitis C virus; experiment: Antiviral activity against HCV1b in Rluc cells assessed as TP level per million cells after 24 hrs by liquid chromatography; assay type: functional, Hepacivirus hominis, genotype 1b
Compound,IC50 [3],EC50 [1],EC50 [2],Activity [4]
C[C@@]1(O)[C@H](O)[C@@H](CO)O[C@@]1(C#N)c1ccc2c(N)ncnn12,–,> 89 µM,> 89 µM,–
CC(C)OC(=O)[C@H](C)N[P@](=O)(OC[C@H]1O[C@@](C#N)(n2ccc(N)nc2=O)[C@](C)(O)[C@@H]1OC(=O)C(C)C)Oc1ccccc1,–,0.25 µM,0.6 µM,–
C[C@@]1(O)[C@H](O)[C@@H](CO)O[C@H]1n1ccc(N)nc1=O,1.67 µM,2.5 µM,2.8 µM,–
CC(C)OC(=O)[C@H](C)N[P@+]([O-])(OC[C@H]1O[C@@](C#N)(c2ccc3c(N)ncnn23)[C@](C)(O)[C@@H]1OC(=O)C(C)C)Oc1ccccc1 [GS-6620],–,0.094 µM,0.24 µM,40 pmol

# More lines, main results first:
IC50 [3],Compound,EC50 [1],EC50 [2],Activity [4]
17.7 µM,C[C@@]1(O)[C@H](O)[C@@H](CO)O[C@@]1(C#N)n1ccc(N)nc1=O,76 µM,> 89 µM,–
27 µM,C[C@@]1(O)[C@H](O)[C@@H](CO)O[C@@]1(C#N)n1ccc(=O)[nH]c1=O,> 89 µM,> 89 µM,–
